Results from patent EP0761222A1, “Use of orotic acid for the preparation of a medicament for amelioration of microcirculation” (WÖRWAG PHARMA GmbH, priority 1995, dated 1997).

Legend:
Format in all cases: in vivo
[1] = test system: Kaninchen; test: Arteriosclerosis model under 2 % cholesterol diet, planimetric-photographic (density slice) and histological evaluation of vessels; conditions: 112 Tage 2 % cholesterol diet; for Index arteriosklerotischer Gefäßveränderungen (Gefäßverengungen): equimolar amounts, untreated control index 34,36, Fig. 1
Source text: (§1) In einer Versuchsreihe mit einem Arteriosklerose-Modell wurden Kaninchen über 112 Tage einer zweiprozentigen Cholesterindiät ausgesetzt und mit äquimolaren Mengen von` Magnesiumchlorid, Orotsäure und Magnesiumorotat bzw. in der Kontrollgruppe überhaupt nicht weiter behandelt. Zusätzlich zu histologischen Untersuchungen der Koronaarterien sowie der Aorta femoralis und renalis wurde der Zustand der Aorta an jeweils mehreren Stellen auch planimetrisch-photographisch dokumentiert. Mittels einer computergestützten, digitalen Methode der Oberflächenmessung ("density slice"-Methode) erhält man hierbei dreidimensionale Bilder, mit deren Hilfe auch eine Quantifizierung der cholesterininduzierten Lumeneinengungen möglich ist.

[2] = test system: Kaninchen; test: Coronary angiography in the arteriosclerosis model of Beispiel 2; conditions: cholesterol stress, untreated control developed Mikroangiopathien
Source text: as §1
Zusätzlich zu den planimetrisch-photographischen Untersuchungen wurde bei der Versuchsreihe aus Beispiel 2 auch eine koronarangiographische Untersuchung vorgenommen.

[3] = test system: Patienten mit Durchblutungsstörungen; test: Effect of a single oral dose of Magnesiumorotat on flow properties of human blood, blood pressure and transcutaneous oxygen pressure
Description: 10 Patienten mit Durchblutungsstörungen wurden 4 g Magnesiumorotat zusammen mit ca. 150 ml Wasser verabreicht. Die Blutentnahme erfolgte vor und im Abstand von 15, 30, 60, 120 und 180 Minuten nach der Tabletteneinnahme. Direkt vor jeder Blutentnahme wurden Blutdruck, Puls, der transkutane Sauerstoffdruck, der transkutane Kohlendioxiddruck und die Heizleistungsabweichung gemessen. Es wurden folgende Blutparameter untersucht: • Hämatokrit • BSC • Plasmaviskosität • Erythrozytenaggregation • Erythrozytenfiltrabilität.
Es wurde eine Senkung des systemischen Druckes, insbesondere des systolischen Druckes, bis zum Zeitpunkt 60 Minuten nach Tablettenvergabe festgestellt. Die relative Plasmaviskosität erreicht 60 Minuten nach Tabletteneinnahme ihr Minimum mit anschließender Tendenz zur Normalisierung. In ähnlicher Weise verhält sich die Blutviskosität, die 30 Minuten nach Tabletteneinnahme ein Minimum aufweist.
Besonders interessant sind die Veränderungen der transkutanen Sauerstoffdruckwerte, die im Bereich des Vorfußes abgenommen werden. Bei diesen Patienten mit einer chronisch-arteriellen Verschlußkrankheit sind die tcpO2-Werte bekannterweise nicht sonderlich erniedrigt. Die Ergebnisse der pO2-Werte zeigen doch, daß es zu einem Anstieg der pO2-Werte kommt, die zu dem Zeitpunkt 15 und 30 Minuten statistisch gesichert sind. Dieser Anstieg der tcpO2-Werte überrascht und beruht auf den verbesserten Fließeigenschaften des Blutes.

[4] = test system: Wistar-Ratten; test: Hypertension animal model (ROG-Modell, LG-Modell), malignant hypertension
Source text: In den Hypertonie-Tiermodellen nach Rojo-Ortega-Genest (ROG-Modell) und Lörincz-Goracz (LG-Modell) wird bei Wistar-Ratten die Aorta zwischen den beiden Renalarterien unterbunden bzw. die Niere in eine Gummimanschette fest eingepreßt, was einen malignen Hypertonus hervorruft, also eine Hypertonie mit konstanter Erhöhung des arteriellen diastolischen Blutdruckes auf > 120 mmHg.
Das Ergebnis dieser Untersuchung ist in Fig. 2 dargestellt, wobei die dunklen Säulen jeweils den Beginn der ROG-Hypertonie anzeigen, während die hellen Säulen das Ende der ROG-Hypertonie darstellen. Links in Fig. 2 ist die ROG-Hypertonie ohne Behandlung gezeigt, während die beiden rechten Säulen den Verlauf der ROG-Hypertonie unter Zugabe von täglich 300 mg Magnesiumorotat wiedergibt.

[5] = test system: Triathleten; test: Double-blind, randomised, placebo-controlled triathlon test, parameters of energy metabolism in blood; conditions: four weeks Magnesiumorotat 17 mmol/Tag
Source text: In einer doppelblinden, randomisierten und placebokontrollierten Studie wurden 23 Triathleten einem 500 m Schwimm-, 20 km Fahrrad- und 5.000 m Lauftest nach einer vierwöchigen Magnesiumorotat-Supplementierung von 17 mmol/Tag unterworfen. Die Tests wurden ohne Pausen direkt hintereinander absolviert. Vor dem Test, zwischen den Disziplinen und am Ende wurde den Probanden Blut entnommen und auf Parameter des Energiestoffwechsels untersucht.

Compound | Index arteriosklerotischer Gefäßveränderungen (Gefäßverengungen) [1] | Wirkung bei Mikroangiopathien von kleinen und kleinsten Blutgefäßen am Herzen [2] | systemischer Druck, insbesondere systolischer Druck ([3]; 4 g Magnesiumorotat oral, single dose, 10 patients, until 60 Minuten after tablet intake) | Erythrozytenfiltrationswerte ([3]; 4 g Magnesiumorotat oral, 15-180 Minuten after intake) | transkutane Sauerstoffdruckwerte (tcpO2-Werte), Vorfuß ([3]; 4 g Magnesiumorotat oral, statistically confirmed at 15 and 30 Minuten) | Hämatokritwert ([3]; 4 g Magnesiumorotat oral, tendency to rise again at end of test) | Zeitpunkt des Minimums der Blutviskosität ([3]; 4 g Magnesiumorotat oral, time after tablet intake) | Zeitpunkt des Minimums der relativen Plasmaviskosität ([3]; 4 g Magnesiumorotat oral, time after tablet intake, then tendency to normalise) | Mikrozirkulation (Kapillarfluß an dem Nagelbett) ([3]; acute oral dose of 4 g Magnesiumorotat) | Blut- und Plasmaviskosität ([3]; acute oral dose of 4 g Magnesiumorotat, patients with arterial occlusive disease) | lumeneinengende Proliferation von Schaumzellen in den Koronarien ([1]; light/electron microscopy, enzyme histochemistry) | periarterielle Zellinfiltrationen und Herzmuskelzellausfälle ([4]; 300 mg Magnesiumorotat daily, compared with no treatment) | Blutdruck systolisch, Ende der ROG-Hypertonie ([4]; ROG-Modell, 300 mg Magnesiumorotat daily, untreated control animals 186 mmHg) | Blutdruck systolisch, Ausgangswert ([4]; ROG-Modell, start of ROG-Hypertonie, treated group, control 81 mmHg) | Insulinkonzentration ([5]; control group 139 ± 101 %, significant) | Anstieg der Glukosekonzentration während des Tests ([5]; control group 187 ± 34 %, significantly lower)
[Cl-].[Cl-].[Mg+2] [Magnesiumchlorid, reference compound] | 22,63 |  |  |  |  |  |  |  |  |  |  |  |  |  |  | 
O=C(O)c1cc(=O)[nH]c(=O)[nH]1 [Orotsäure] | 9,77 | präventive und therapeutische Wirkung |  |  |  |  |  |  |  |  |  |  |  |  |  | 
O=C(O)c1cc(=O)[nH]c(=O)[nH]1 [Magnesiumorotat] | 7,28 | präventive und therapeutische Wirkung | Senkung | zu keinem Zeitpunkt nach der oralen Gabe von Magnesiumorotat zu statistisch signifikanten Veränderungen | Anstieg | temporäre Abnahme | 30 Minuten | 60 Minuten | erheblich verbesserten | signifikant vermindert | weitaus am geringsten ausgeprägt | weit weniger | 152 mmHg | 79 mmHg | 65 ± 43 % der Anfangswerte | 118 ± 45%
